# Reference: patent US11555012B2 (Nimbus Artemis, Inc., priority 2018, dated 2023)
# How the values were obtained:
# ACL [1] = biological target: T1, ACL (Homo sapiens (Human), UniProt P53396); assay: ACLY-MDH Coupled Assay
# Target sequence in this assay (P53396 whole entry, species assumed): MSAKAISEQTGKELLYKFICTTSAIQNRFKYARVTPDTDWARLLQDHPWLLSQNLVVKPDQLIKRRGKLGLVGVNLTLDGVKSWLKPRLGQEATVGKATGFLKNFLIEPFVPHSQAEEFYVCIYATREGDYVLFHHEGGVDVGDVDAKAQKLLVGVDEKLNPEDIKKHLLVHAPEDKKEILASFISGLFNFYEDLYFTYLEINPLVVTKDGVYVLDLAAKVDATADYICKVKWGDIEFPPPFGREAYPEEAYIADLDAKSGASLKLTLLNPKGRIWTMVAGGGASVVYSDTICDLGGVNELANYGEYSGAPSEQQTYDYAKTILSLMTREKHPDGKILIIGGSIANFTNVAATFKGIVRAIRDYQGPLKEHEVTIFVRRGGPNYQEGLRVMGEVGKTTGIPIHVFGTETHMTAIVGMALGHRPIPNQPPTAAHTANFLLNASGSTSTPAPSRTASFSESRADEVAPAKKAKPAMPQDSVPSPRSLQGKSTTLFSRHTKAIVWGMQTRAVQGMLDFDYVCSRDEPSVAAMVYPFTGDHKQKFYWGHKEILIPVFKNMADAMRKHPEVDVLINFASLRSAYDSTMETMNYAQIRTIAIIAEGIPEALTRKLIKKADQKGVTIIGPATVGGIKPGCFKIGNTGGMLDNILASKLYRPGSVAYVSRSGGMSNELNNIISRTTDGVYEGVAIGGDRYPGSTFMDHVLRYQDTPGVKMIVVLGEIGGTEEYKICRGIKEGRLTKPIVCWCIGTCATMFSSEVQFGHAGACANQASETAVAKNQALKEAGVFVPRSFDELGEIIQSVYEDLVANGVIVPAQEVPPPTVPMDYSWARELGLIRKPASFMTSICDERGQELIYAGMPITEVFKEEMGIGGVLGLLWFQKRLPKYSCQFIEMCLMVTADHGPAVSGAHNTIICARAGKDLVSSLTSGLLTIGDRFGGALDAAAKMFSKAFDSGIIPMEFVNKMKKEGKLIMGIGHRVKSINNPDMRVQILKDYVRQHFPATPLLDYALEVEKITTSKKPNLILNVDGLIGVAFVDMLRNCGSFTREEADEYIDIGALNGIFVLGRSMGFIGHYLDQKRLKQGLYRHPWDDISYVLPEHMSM
# Method: Compounds of the present invention were evaluated in an ACLY Coupled Assay.
# The assay protocol for the Coupled Assay (below) was followed:
# b) Add 1 μL cpds to 96 assay plate, Test cpd conc: 100/30/10 μM top dose, 3 folds dilution, 10+0+control (control: buffer without ACL+DMSO) points, 1000 rpm for 1 min, incubation at 25° C. for 60 min
# ACL [2] = biological target: T1, ACL; assay: ADP-Glo Assay
# Target sequence in this assay (P53396 other isoform, or with tags, fused parts or gaps isoform P53396-2): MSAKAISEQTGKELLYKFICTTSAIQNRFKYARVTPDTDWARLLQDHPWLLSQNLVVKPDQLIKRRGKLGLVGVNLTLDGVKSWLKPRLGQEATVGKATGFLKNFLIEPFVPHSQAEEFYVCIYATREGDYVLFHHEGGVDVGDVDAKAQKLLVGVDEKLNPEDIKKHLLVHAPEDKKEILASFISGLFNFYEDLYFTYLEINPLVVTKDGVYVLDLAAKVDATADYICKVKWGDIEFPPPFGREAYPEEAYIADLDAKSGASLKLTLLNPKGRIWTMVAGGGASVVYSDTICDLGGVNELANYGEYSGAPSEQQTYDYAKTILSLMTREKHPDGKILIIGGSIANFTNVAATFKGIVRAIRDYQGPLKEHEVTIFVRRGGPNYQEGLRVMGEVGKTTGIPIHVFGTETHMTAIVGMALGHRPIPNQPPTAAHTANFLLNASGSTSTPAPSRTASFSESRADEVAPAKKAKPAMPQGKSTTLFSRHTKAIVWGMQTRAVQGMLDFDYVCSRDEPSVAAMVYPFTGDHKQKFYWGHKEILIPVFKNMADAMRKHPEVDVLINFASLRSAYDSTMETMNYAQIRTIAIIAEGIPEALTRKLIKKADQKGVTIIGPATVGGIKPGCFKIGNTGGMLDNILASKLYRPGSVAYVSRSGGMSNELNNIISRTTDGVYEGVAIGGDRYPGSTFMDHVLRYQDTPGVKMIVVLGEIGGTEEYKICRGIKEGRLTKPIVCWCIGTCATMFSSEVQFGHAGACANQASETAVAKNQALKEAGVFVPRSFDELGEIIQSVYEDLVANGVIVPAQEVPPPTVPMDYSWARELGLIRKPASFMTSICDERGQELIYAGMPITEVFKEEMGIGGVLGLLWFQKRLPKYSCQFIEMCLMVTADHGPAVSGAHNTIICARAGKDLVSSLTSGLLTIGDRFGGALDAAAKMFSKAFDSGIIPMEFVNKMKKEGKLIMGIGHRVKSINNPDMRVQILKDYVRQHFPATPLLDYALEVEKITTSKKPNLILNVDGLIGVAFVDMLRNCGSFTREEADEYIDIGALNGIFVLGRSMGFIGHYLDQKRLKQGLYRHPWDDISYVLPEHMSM
# [3] = read-out: ACL-ADP-Glo (IC50), 3 nM ACL, 15 μM ATP, 3 μM CoA, 300 μM Citrate
# [4] = read-out: ACL-MDH Coupled Assay (IC50), 8 nM ACL, 60 μM CoA Na2, 85 μM Citrate, 250 μM ATP, 250 μM NADH
Structure (SMILES),IC50 (ACL [1]) [µM],IC50 (ACL [2]) [µM],IC50 (ACL [2]; [3]) [µM],IC50 (ACL [1]; [4]) [µM]
"N#Cc1cc(Cl)cc(S(=O)(=O)Nc2cc(-c3cc4ccccc4s3)c(F)cc2F)c1 [I-203, N-(5-(benzo[b]thiophen-2-yl)-2,4-difluorophenyl)-3-chloro-5-cyanobenzenesulfonamide]",> 30,0.5 to 20,–,–
"O=C(c1cc(Cl)c(O)c(S(=O)(=O)Nc2cc(-c3ccccn3)ccc2F)c1)N1CCC1 [I-206, 5-(azetidine-1-carbonyl)-3-chloro-N-[2-fluoro-5-(pyridin-2-yl)phenyl]-2-hydroxybenzene-1-sulfonamide]",0.05 to 0.5,0.05 to 0.5,–,–
"O=C(c1cc(Cl)c(O)c(S(=O)(=O)Cc2cc(-c3ccccc3)c(F)cc2F)c1)N1CCCC1 [I-211, (3-chloro-5-(((4,6-difluoro-[1,1′-biphenyl]-3-yl)methyl)sulfonyl)-4-hydroxyphenyl)(pyrrolidin-1-yl)methanone]",0.5 to 30,0.5 to 20,–,–
"O=C(O)COc1ccc(-c2ccccc2)cc1NS(=O)(=O)c1cc(Cl)cc(Cl)c1O [I-212, 2-[[3-(3,5-dichloro-2-hydroxybenzenesulfonamido)-[1,1-biphenyl]-4-yl]oxy]acetic Acid]",0.5 to 30,0.05 to 0.5,–,–
"O=C(c1cc(Cl)c(O)c(S(=O)(=O)Nc2cc3ccsc3cc2F)c1)N1CCC1 [I-221, 5-(azetidine-1-carbonyl)-3-chloro-N-(6-fluoro-1-benzothiophen-5-yl)-2-hydroxybenzene-1-sulfonamide]",0.5 to 30,0.5 to 20,–,–
"O=C(c1cc(Cl)c(O)c(S(=O)(=O)Nc2cc(-c3ccccc3)ncc2F)c1)N1CCC1 [I-222, 5-(azetidine-1-carbonyl)-3-chloro-N-(5-fluoro-2-phenylpyridin-4-yl)-2-hydroxybenzene-1-sulfonamide]",0.5 to 30,0.05 to 0.5,–,–
"N#Cc1cc(Cl)cc(S(=O)(=O)Nc2cc(-c3ccccc3)ccc2C(=O)O)c1 [I-226, 3-((3-chloro-5-cyanophenyl)sulfonamido)-[1,1′-biphenyl]-4-carboxylic acid]",0.5 to 30,0.5 to 20,–,–
"O=C(c1cc(Cl)c(O)c(S(=O)(=O)N(C(=O)C2CC2)c2cc(-c3ccccc3)c(F)cc2F)c1)N1CCC1 [I-229, N-((5-(azetidine-1-carbonyl)-3-chloro-2-hydroxyphenyl)sulfonyl)-N-(4,6-difluoro-[1,1′-biphenyl]-3-yl)cyclopropanecarboxamide]",0.05 to 0.5,–,< 0.05,–
"Cc1cc(C)cc(S(=O)(=O)Nc2cc(-c3ccccc3)ccc2C(=O)O)c1 [I-232, 3-((3,5-dimethylphenyl)sulfonamido)-[1,1′-biphenyl]-4-carboxylic acid]",0.5 to 30,0.5 to 20,–,–
"CC(C)(Oc1ccc(-c2ccccc2)cc1NS(=O)(=O)c1cc(Cl)cc(Cl)c1O)C(=O)O [I-239, 2-((3-((3,5-dichloro-2-hydroxyphenyl)sulfonamido)-[1,1′-biphenyl]-4-yl)oxy)-2-methylpropanoic Acid]",0.5 to 30,0.5 to 20,–,–
"O=S(=O)(Nc1cc(Cl)cc(-c2nccs2)c1)c1cc(Cl)cc(Cl)c1O [I-240, 3,5-dichloro-N-(3-chloro-5-(thiazol-2-yl)phenyl)-2-hydroxybenzenesulfonamide]",0.5 to 30,0.5 to 20,–,–
"O=C(c1cc(Cl)c(O)c(S(=O)(=O)Nc2cc(-n3nccn3)ccc2F)c1)N1CCC1 [I-241, 5-(azetidine-1-carbonyl)-3-chloro-N-(2-fluoro-5-(2H-1,2,3-triazol-2-yl)phenyl)-2-hydroxybenzenesulfonamide]",0.5 to 30,0.05 to 0.5,–,–
"O=C(O)c1cc(-c2ccccc2)sc1NS(=O)(=O)c1cc(Cl)cc(Cl)c1 [I-242, 2-((3,5-dichlorophenyl)sulfonamido)-5-phenylthiophene-3-carboxylic Acid]",0.5 to 30,0.5 to 20,–,–
"O=C(O)c1ncc(-c2ccccc2)cc1NS(=O)(=O)c1cc(Cl)cc(Cl)c1 [I-243, 3-((3,5-dichlorophenyl)sulfonamido)-5-phenylpicolinic Acid]",0.5 to 30,0.5 to 20,–,–
"O=C(O)c1cc(Cl)c(O)c(S(=O)(=O)Nc2cc(-c3cccs3)c(F)cc2F)c1 [I-248, 3-chloro-5-[[2,4-difluoro-5-(thiophen-2-yl)phenyl]sulfamoyl]-4-hydroxybenzoic Acid]",0.5 to 30,0.5 to 20,–,–
"O=C(O)c1ccc(-c2ccccc2)cc1NS(=O)(=O)c1cc(Cl)cc(Cl)c1O [I-249, 3-((3,5-dichloro-2-hydroxyphenyl)sulfonamido)-[1,1′-biphenyl]-4-carboxylic acid]",0.5 to 30,0.5 to 20,–,–
"O=C(O)COc1ccc(-c2ccccc2)cc1NS(=O)(=O)c1cc(C(F)(F)F)cc(Cl)c1O [I-264, 2-([3-[3-chloro-2-hydroxy-5-(trifluoromethyl)benzenesulfonamido]-[1,1-biphenyl]-4-yl]oxy)acetic Acid]",0.5 to 30,0.5 to 20,–,–
"CC(C)(C)OC(=O)COc1ccc(-c2ccccc2)cc1NS(=O)(=O)c1cc(C(=O)N2CCC2)cc(Cl)c1O [I-266, tert-butyl 2-((3-((5-(azetidine-1-carbonyl)-3-chloro-2-hydroxyphenyl)sulfonamido)-[1,1′-biphenyl]-4-yl)oxy)acetate]",0.5 to 30,0.5 to 20,–,–
"O=S(=O)(Nc1cc(-c2ccccc2)c(F)cc1F)c1cc(-c2nnn[nH]2)cc(Cl)c1O [I-269, 3-chloro-N-[4,6-difluoro-[1,1-biphenyl]-3-yl]-2-hydroxy-5-(1H-1,2,3,4-tetrazol-5-yl)benzene-1-sulfonamide]",0.5 to 30,0.5 to 20,–,–

Structure (SMILES),IC50 (ACL [1]) [µM],IC50 (ACL [2]) [µM],IC50 (ACL [2]; [3]) [µM],IC50 (ACL [1]; [4]) [µM]
"COc1ccc(-c2ccccc2)cc1NS(=O)(=O)c1cc(C(=O)N2CC(N)C2)cc(Cl)c1O [I-276, 5-(3-aminoazetidine-1-carbonyl)-3-chloro-2-hydroxy-N-[4-methoxy-[1,1-biphenyl]-3-yl]benzene-1-sulfonamide]",0.05 to 0.5,–,< 0.05,–
"NC1CN(C(=O)c2cc(Cl)c(O)c(S(=O)(=O)Nc3cc(-c4cc5ccccc5s4)c(F)cc3F)c2)C1 [I-282, 5-(3-aminoazetidine-1-carbonyl)-N-(5-(benzo[b]thiophen-2-yl)-2,4-difluorophenyl)-3-chloro-2-hydroxybenzenesulfonamide]",–,–,< 0.05,< 0.05
"O=C(O)c1cc(F)c(-c2ccccc2)cc1NS(=O)(=O)c1cc(Cl)cc(Cl)c1O [I-289, 5-((3,5-dichloro-2-hydroxyphenyl)sulfonamido)-2-fluoro-[1,1′-biphenyl]-4-carboxylic Acid]",0.5 to 30,0.5 to 20,–,–
"O=C(O)c1ccc(-c2cc3ccccc3s2)cc1NS(=O)(=O)c1cc(Cl)cc(Cl)c1 [I-293, 4-(benzo[b]thiophen-2-yl)-2-((3,5-dichlorophenyl)sulfonamido)benzoic acid]",0.5 to 30,0.5 to 20,–,–
"O=C(O)c1ccc(-c2cc3ccccc3s2)cc1NS(=O)(=O)c1cc(Cl)cc(C(F)(F)F)c1 [I-294, 4-(benzo[b]thiophen-2-yl)-2-((3-chloro-5-(trifluoromethyl)phenyl)sulfonamido)benzoic Acid]",0.5 to 30,0.5 to 20,–,–
"COC(=O)c1cc(Br)cc(S(=O)(=O)Nc2cc(-c3ccccc3)ccc2C(=O)O)c1 [I-295, 3-((3-bromo-5-(methoxycarbonyl)phenyl)sulfonamido)-[1,1′-biphenyl]-4-carboxylic Acid]",0.5 to 30,0.5 to 20,–,–
"COc1c(Cl)cc(Cl)cc1S(=O)(=O)Nc1cc(-c2cc3ccccc3s2)ccc1C(=O)O [I-297, 4-(benzo[b]thiophen-2-yl)-2-((3,5-dichloro-2-methoxyphenyl)sulfonamido)benzoic Acid]",0.5 to 30,0.5 to 20,–,–
"O=C(O)c1ccc(-c2ccccc2)cc1NS(=O)(=O)Cc1ccc(C(F)(F)F)cc1 [I-299, 3-(((4-(trifluoromethyl)phenyl)methyl)sulfonamido)-[1,1′-biphenyl]-4-carboxylic acid]",0.5 to 30,0.5 to 20,–,–
"O=C(O)c1ccc(-c2ccccc2)cc1NS(=O)(=O)Cc1cc(Cl)cc(Cl)c1 [I-305, 3-(((3,5-dichlorophenyl)methyl)sulfonamido)-[1,1′-biphenyl]-4-carboxylic acid]",0.5 to 30,0.5 to 20,–,–
"O=C(O)c1ccc(-c2ccccc2)cc1NS(=O)(=O)c1cc(Br)cc(C(F)(F)F)c1 [I-306, 3-((3-bromo-5-(trifluoromethyl)phenyl)sulfonamido)-[1,1′-biphenyl]-4-carboxylic acid]",0.05 to 0.5,0.05 to 0.5,–,–
"O=C(O)c1ccc(-c2ccccc2)cc1NS(=O)(=O)c1cc(Cl)c(Cl)s1 [I-311, 3-((4,5-dichlorothiophene)-2-sulfonamido)-[1,1′-biphenyl]-4-carboxylic acid]",0.5 to 30,0.5 to 20,–,–
"O=C(O)c1occc1NS(=O)(=O)c1cc(Cl)cc(Cl)c1 [I-316, 3-((3,5-dichlorophenyl)sulfonamido)furan-2-carboxylic acid]",0.5 to 30,0.5 to 20,–,–
"O=C(O)c1cc(F)c(-c2ccccc2)cc1NCc1cc(Cl)cc(Cl)c1 [I-317, 5-((3,5-dichlorobenzyl)amino)-2-fluoro-[1,1′-biphenyl]-4-carboxylic Acid]",0.5 to 30,0.5 to 20,–,–
"O=C(O)c1sc(-c2ccc(Cl)cc2)cc1NS(=O)(=O)c1cc(Cl)cc(Cl)c1 [I-322, 5-(4-chlorophenyl)-3-((3,5-dichlorophenyl)sulfonamido)thiophene-2-carboxylic acid]",0.5 to 30,0.5 to 20,–,–
"O=c1[nH]cc(Cl)cc1S(=O)(=O)Nc1cc(-c2ccccc2)c(F)cc1F [I-326, 5-chloro-N-(4,6-difluoro-[1,1′-biphenyl]-3-yl)-2-oxo-1,2-dihydropyridine-3-sulfonamide]",–,–,0.05 to 0.5,0.05 to 0.5
CC(C)(C)C1CCN(S(=O)(=O)Nc2cc(-c3ccccc3)ccc2C(=O)O)CC1 [I-327],0.5 to 30,0.5 to 20,–,–
O=C(O)c1ccc(-c2ccccc2)cc1NS(=O)(=O)CC1Cc2ccccc2C1 [I-328],0.5 to 30,0.5 to 20,–,–
O=C(O)c1ccc(-c2ccccc2)cc1NS(=O)(=O)C1CCC1 [I-329],0.5 to 30,0.5 to 20,–,–
